# Source: patent publication US20240270762A1, “PENICILLIN-BINDING PROTEIN INHIBITORS” (priority 2021, published 2024)
# pEC50, pIC50: −log10 of the molar value.
# Assays:
# [1] = biological target: T1, PBP3 from Pseudomonas aeruginosa (PAO1) (Pseudomonas aeruginosa, UniProt G3XD46); test: Bocillin-FL fluorescence polarization competition binding, P. aeruginosa PBP3; conditions: Binding affinity to P. aeruginosa PBP3; fluorescence polarization competition binding assay using Bocillin-FL; read-out: P. aeruginosa PBP3 Potency
# T1 construct: made in house
# Source text: (§1) To determine the ability of boronic acid-based test PBP inhibitors to bind Penicillin Binding Proteins (PBPs), Bocillin-FL (fluorescently-labeled penicillin V; ThermoFisher Scientific) was used in a fluorescence polarization (FP) competition binding assay to assess inhibitor binding to PBP3 from Escherichia coli (K-12), PBP3 from Pseudomonas aeruginosa (PAO1), PBP1a and PBP3 from Acinetobacter baumannii (ATCC 19606), and PBP2 from Neisseria gonorrhoeae (FA19). PBPs were cloned and purified as described previously (E. coli PBP3, King, D. T, et al., ACS Infectious Diseases 2015, 1, 175-184; P. aeruginosa PBP3, Han et. al., PNAS 2010, 107 (51), 22002-22007; A. baumannii PBPs, Penwell et. al., Antimicrob. Agents Chemother. 2015, 59 (3), 1680-1689; N. gonorrhoeae PBP2, Singh et. al., J. Biol. Chem. 2019, 294 (38), 14020-14032). To establish assay conditions for competition binding, enzyme titration/saturation binding experiments were initially performed. Bocillin-FL was prepared at 0.2 μM in a buffer comprised of 50 mM Hepes (pH 8.0), 300 mM NaCl and 10% (v/v) glycerol for reactions with E. coli, P. aeruginosa and N. gonorrhoeae PBPs, and 25 mM Tris (pH 8.0), 200 mM NaCl, 10% (v/v) glycerol and 0.005% (v/v) Tween 20 for reactions with A. baumannii PBPs. Saturation binding was performed by mixing 40 μl of PBP solutions ranging in concentrations from 0-24 μM with 40 μl of the 0.2 μM Bocillin-FL solution, in individual wells of a black 384-well microplate. FP was measured immediately upon mixing (Excitation, 490 nm; Emission, 520 nm; g-factor, 0.96), using a Cytation3 (BioTek) microplate reader and measured continuously for up to 120 minutes. The FP response stabilized after 15 minutes for P. aeruginosa and A. baumannii PBP3, 30 minutes for E. coli PBP3 and A. baumannii PBP1a, and less than 1 minute for N. gonorrhoeae PBP2. […] The competition binding assay (80 μl final volume) was validated using beta-lactams and PBPs at final concentrations of: 1.5 μM for E. coli PBP3; 0.75 μM for P. aeruginosa PBP3; 1 μM for A. baumannii PBP1a; 0.2 μM for A. baumannii PBP3; and 0.25 μM for N. gonorrhoeae PBP2. Bocillin-FL was at 0.1 μM (0.05 μM with A. baumannii PBP1a) and beta-lactam concentrations ranged from 0-1,000 μM. E. coli PBP3 was incubated with increasing concentrations of ampicillin in a black 384-well microplate (Corning) for 30 minutes. P. aeruginosa PBP3 was incubated for 15 minutes with aztreonam, whereas A. baumannii PBP1a and PBP3 were incubated for 15 minutes with meropenem, and then Bocillin-FL was added followed immediately by the FP measurement for up to 60 minutes. […] The beta-lactam potency was reported as the concentration of beta-lactam required to reduce the amount of PBP bound-Bocillin-FL by 50% (EC50). […] The EC50 of aztreonam was determined to be <0.5 μM for P. aeruginosa PBP3. […] Binding assays for boronic acid PBP inhibitors were performed in an identical fashion for the respective PBPs.
# E. coli AG100 = test: microbe, parasite or virus in culture; type: cell-based; conditions: Escherichia coli, AG100, read-out: MIC E. coli AG100
# [2] = system: P. aeruginosa (ΔmexAB-oprM); test: Broth microdilution MIC in CAMHB; type: cell-based; conditions: Pseudomonas aeruginosa; read-out: MIC P. aeruginosa ΔmexAB-oprM
# K. pneumoniae SI-117 = test: microbe, parasite or virus in culture; type: cell-based; conditions: Klebsiella pneumoniae, SI117, read-out: MIC K. pneumoniae SI-117
# E. coli ATCC 25922 = test: microbe, parasite or virus in culture; type: cell-based; conditions: Escherichia coli, ATCC25922, read-out: MIC E. coli 25922
# E. coli 901C = test: microbe, parasite or virus in culture; type: cell-based; conditions: Escherichia coli, read-out: MIC E. coli 901C
# E. coli AG100A = test: Broth microdilution MIC in CAMHB; type: cell-based; conditions: Escherichia coli, read-out: MIC E. coli AG100A
# P. aeruginosa ATCC 35151 = test: microbe, parasite or virus in culture; type: cell-based; conditions: Pseudomonas aeruginosa, ATCC35151, read-out: MIC P. aeruginosa ATCC 35151
# E. coli D22 = test: microbe, parasite or virus in culture; type: cell-based; conditions: Escherichia coli, D22, read-out: MIC E. coli D22
# A. baumannii ATCC 19606 = test: microbe, parasite or virus in culture; type: cell-based; conditions: Acinetobacter baumannii, ATCC19606, read-out: MIC, A. baumannii ATCC 19606
# K. pneumoniae 848844 = test: microbe, parasite or virus in culture; type: cell-based; conditions: Klebsiella pneumoniae, 848844, read-out: MIC K. pneumoniae 848844
# [3] = biological target: T2, PBP3 from Escherichia coli (K-12) (Escherichia coli, UniProt P0AD68); test: Bocillin-FL fluorescence polarization competition binding, E. coli PBP3
# T2 construct: made in house
# Source text: as §1
# K. pneumoniae UMM = test: microbe, parasite or virus in culture; type: cell-based; conditions: Klebsiella pneumoniae, read-out: MIC K. pneumoniae UMM
# P. aeruginosa ATCC 27853 = test: microbe, parasite or virus in culture; type: cell-based; conditions: Pseudomonas aeruginosa, ATCC27853, read-out: MIC P. aeruginosa ATCC 27853
# T1 sequence (G3XD46 whole entry): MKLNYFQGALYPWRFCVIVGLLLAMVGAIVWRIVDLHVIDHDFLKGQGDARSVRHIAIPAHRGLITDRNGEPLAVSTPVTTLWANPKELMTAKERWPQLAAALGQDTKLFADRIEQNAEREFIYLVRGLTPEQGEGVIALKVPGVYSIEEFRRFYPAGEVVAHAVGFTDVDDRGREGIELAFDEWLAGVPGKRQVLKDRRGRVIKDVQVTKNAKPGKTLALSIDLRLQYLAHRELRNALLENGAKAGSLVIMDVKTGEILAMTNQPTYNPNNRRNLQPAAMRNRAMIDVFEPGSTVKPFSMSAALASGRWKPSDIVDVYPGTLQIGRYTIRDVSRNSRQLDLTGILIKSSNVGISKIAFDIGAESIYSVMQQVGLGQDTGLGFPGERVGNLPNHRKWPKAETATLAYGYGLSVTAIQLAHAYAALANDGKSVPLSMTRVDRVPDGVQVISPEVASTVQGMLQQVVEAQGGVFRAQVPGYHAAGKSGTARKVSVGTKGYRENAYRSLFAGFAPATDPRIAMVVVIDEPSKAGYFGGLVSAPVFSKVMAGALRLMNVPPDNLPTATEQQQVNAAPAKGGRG
# T2 sequence (P0AD68 1-577): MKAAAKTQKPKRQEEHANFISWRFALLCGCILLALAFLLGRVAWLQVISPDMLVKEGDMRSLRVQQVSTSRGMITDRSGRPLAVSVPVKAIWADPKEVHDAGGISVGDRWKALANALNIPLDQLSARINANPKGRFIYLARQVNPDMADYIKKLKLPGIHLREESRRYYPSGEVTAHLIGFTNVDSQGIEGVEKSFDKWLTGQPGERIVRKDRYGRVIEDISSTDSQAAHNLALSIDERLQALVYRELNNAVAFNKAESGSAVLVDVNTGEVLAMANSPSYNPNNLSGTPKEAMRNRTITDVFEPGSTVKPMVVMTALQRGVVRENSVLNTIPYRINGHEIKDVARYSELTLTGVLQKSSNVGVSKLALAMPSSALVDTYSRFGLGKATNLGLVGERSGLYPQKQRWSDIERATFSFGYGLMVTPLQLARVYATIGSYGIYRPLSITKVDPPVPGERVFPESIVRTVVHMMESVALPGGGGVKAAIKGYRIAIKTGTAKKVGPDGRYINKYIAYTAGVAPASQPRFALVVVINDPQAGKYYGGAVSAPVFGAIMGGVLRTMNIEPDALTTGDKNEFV
smiles,measurement,setting,value
"O=C(N[C@@H](C(=O)N[C@H]1Cc2cccc(C(=O)O)c2OB1O)c1ccc(P(=O)(O)O)cc1)c1cnc2cccn2c1 (single isomer, unassigned) [Example 499]",pIC50,[1],> 5.00
same,MIC,E. coli AG100,> 128 µg/mL
same,MIC,[2],32 to 64 µg/mL
same,MIC,K. pneumoniae SI-117,> 128 µg/mL
same,MIC,E. coli ATCC 25922,> 128 µg/mL
same,MIC,E. coli 901C,2 to 4 µg/mL
same,MIC,E. coli AG100A,32 to 64 µg/mL
same,MIC,P. aeruginosa ATCC 35151,2 to 4 µg/mL
same,MIC,E. coli D22,32 to 64 µg/mL
same,MIC,A. baumannii ATCC 19606,> 128 µg/mL
same,MIC,K. pneumoniae 848844,> 128 µg/mL
same,pEC50,[3],4.30 to 5.00
same,MIC,K. pneumoniae UMM,> 128 µg/mL
same,MIC,P. aeruginosa ATCC 27853,> 128 µg/mL
